Experimental data: patent US20180360972A1, “THERAPEUTIC COMPOUNDS” (REGENTS OF THE UNIVERSITY OF MINNESOTA, priority 2017, published 2018)
Square brackets hold non-standard residues; d marks the D form. Peptide text beside a SMILES is read from it. d2Nal = N[C@H](Cc1ccc2ccccc2c1)C(=O)O

Experiments:
mMC5R = mMC5R (Mus musculus, UniProt P41149); assay: mMC5R | Agonist EC50 (nM)
Method: Table printed on a drawing sheet, Figure 23
The cAMP signaling potency was determined by AlphaScreen® assays. The reported errors are the standard error of the mean (SEM) determined from at least three independent experiments. Changes less than 3-fold were considered to be within the inherent experimental assay error. NS means compound was not soluble in bioassay compatible solvent.

hMC4R [1] = target: T1, hMC4R (Homo sapiens, UniProt P32245); assay: cAMP Signaling | EC50 (nM)
T1 construct: Flag; expressed in transfected cells
Method: Table printed on a drawing sheet, Figure 20
The cAMP signaling potency was determined by AlphaScreen™ assays. […] The reported errors are the standard error of the mean (SEM) determined from at least three independent experiments. Changes less than 3-fold were considered to be within the inherent experimental assay error.
Target sequence in this assay (P32245 whole entry, looked up): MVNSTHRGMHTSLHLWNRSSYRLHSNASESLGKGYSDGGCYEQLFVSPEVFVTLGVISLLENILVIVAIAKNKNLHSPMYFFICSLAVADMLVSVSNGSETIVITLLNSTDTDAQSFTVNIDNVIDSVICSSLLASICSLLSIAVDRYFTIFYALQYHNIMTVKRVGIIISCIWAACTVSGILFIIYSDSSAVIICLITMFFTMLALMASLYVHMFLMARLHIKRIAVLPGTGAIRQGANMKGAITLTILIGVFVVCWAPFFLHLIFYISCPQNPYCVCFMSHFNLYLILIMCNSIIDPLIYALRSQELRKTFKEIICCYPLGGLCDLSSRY

hMC4R [2] = target: T1, hMC4R; assay: PRESTO-Tango β-arrestin recruitment assay; format: cell-based; conditions: for β-arrestin response compared to maximal efficacy of NDP-MSH: at 10 μM; for fold increase in β-arrestin recruitment compared to CJL-1-14: vs tetrapeptide CJL-1-14
Method: The PRESTO-Tango technology is an open-source resource that has been utilized to identify ligands for orphan receptors based on β-arrestin recruitment.
The plasmids and assay technology was kindly provided by the Bryan Roth laboratory (University of North Carolina at Chapel Hill) and are now available through ADDGENE (Kit # 1000000068).
The first day of the assay, HTLA cells were plated at approximately 1×10^6 cells per 10 cm plate and grown to 20-40% confluency. […] The third day, cells were removed from 10 cm plates using Gibco® Versene solution and pelleted by centrifugation (Sorvall Super T21 high speed centrifuge, swinging bucket rotor) at 800 rpm for five minutes at room temperature. Cells were manually counted on a hemocytometer and resuspended in 1% dialyzed FBS and 1% penicillin/streptomycin in DMEM to a final concentration of 400,000 cells/mL. […] Stimulated cells were incubated for 18 hours in 5% CO2 at 37° C. On the fifth day, the assay buffer and cell medium was removed by aspiration. […] After incubation, luminescence was then read on an EnSpire™ Alpha plate reader using a pre-normalized assay protocol for luminescence set by the manufacturer. Dose response curves were analyzed using the PRISM program (v4.0; GraphPad Inc.).
Target sequence in this assay (P32245 whole entry): as the sequence (P32245 whole entry, looked up) above

hMC4R [3] = target: T1, hMC4R; assay: AlphaScreen cAMP functional bioassay, hMC4R; format: cell-based
Method: Upon agonist stimulation, melanocortin receptors are known to signal through a Gαs-protein mediated signaling pathway that results in intracellular cAMP accumulation.
Stable populations were selected for using G418 selection (0.7-1.0 mg/mL) and used in bioassays unless indicated otherwise. In vitro experimental ligands were dissolved to a 10^−2 M stock in DMSO and stored at −20° C. Subsequent dilutions were performed in each assay's specific buffer to achieve the final concentration in the well. The ligands were assayed as TFA salts.
AlphaScreen cAMP Functional Bioassay
The AlphaScreen® assay was performed as described by manufacturer.
Cells were removed from plates using Gibco® Versene solution and pelleted by centrifugation (Sorvall Super T21 high speed centrifuge, swinging bucket rotor) at 800 rpm for five minutes. […] A 10 μL aliquot of cell suspension was counted manually using a hemocytometer after addition of Trypan blue dye (BioRad). Cells were again pelleted by centrifugation, and DPBS was gently aspirated. The pelleted cells were then resuspended in a solution of freshly made stimulation buffer (Hank's Balanced Salt Solution [HBSS 10× [−] sodium bicarbonate] and [−] phenol red, Gibco®], 0.5 mM isobutylmethylxanthine [IBMX], 5 mM HEPES buffer solution [1M, Gibco®], 0.1% bovine serum albumin [BSA] in Milli-Q water, pH=7.4) and anti-cAMP acceptor beads (1.0 unit per well, AlphaScreen®). […] The cells were then stimulated with ligand diluted in stimulation buffer to achieve their final concentrations in the well ranging from 10^−13 to 10^−4 M. The stimulated plates were incubated in a dark laboratory drawer at room temperature for two hours.
Meanwhile, a biotinylated cAMP/streptavidin donor bead working solution was made by adding biotinylated cAMP (1 Unit/well, AlphaScreen®) and streptavidin donor beads (1 Unit/well, AlphaScreen®) to a lysis buffer (10% Tween-20, 5 mM HEPES buffer solution [1M, Gibco®], 0.1% bovine serum albumin [BSA] in Milli-Q water, pH=7.4). After the two hour stimulation, the biotinylated cAMP/Streptavidin donor bead working solution was added to each well under green light and mixed well by pipetting up and down. The cells were incubated for another two hours at room temperature in a dark drawer at room temperature. The plate was then read on an EnSpire™ Alpha plate reader using a pre-normalized assay protocol set by the manufacturer. Assays were performed with duplicate data points on each plate and repeated in at least three independent experiments.
Dose response curves were analyzed using the PRISM program (v4.0; GraphPad Inc.).
Target sequence in this assay (P32245 whole entry): as the sequence (P32245 whole entry, looked up) above

[4] = target: mMC4R-NanoLuc and mMC4R-HaloTag homodimer (Mus musculus, UniProt P56450); assay: NanoBRET ligand-dependent modulation of BRET signal; conditions: 10^−5, 10^−7 and 10^−9 M vs assay buffer
Method: On the first day, cells were plated into 6 well plates in the morning. In the afternoon of the same day, cells were transiently transfected with mMC4R-NanoLuc® fusion protein and the MC4R-HaloTag® fusion protein by adding FuGene6 Transfection (8 μL/well, Promega), DNA (2 μg/well) in OptiMem medium (Invitrogen) at a total volume of 100 μL/well. […] Cells were incubated with transfection reagent overnight at 5% CO2 at 37° C.
This provides the background signal and was subtracted from the final experimental signal. Plates were then developed 48 to 60 hours after transfection. Two hours before the plates were developed, 10 μL of a 10× aliquot of the ligand diluted in assay buffer was added to each well to yield the final in well concentration (10^−5, 10^−7, or 10^−9M) of each compound. For the assay buffer control, 10 μL of assay buffer was added instead of compound. […] The standard error of the mean (SEM) was derived from at least three independent experiments.

hMC4R [5] = target: T1, hMC4R; assay: β-Arrestin Recruitment | EC50 (nM)
Target sequence in this assay (P32245 whole entry, looked up): as above

mMC4R-NanoLuc and mMC4R-HaloTag homodimer, sequence (P56450 whole entry): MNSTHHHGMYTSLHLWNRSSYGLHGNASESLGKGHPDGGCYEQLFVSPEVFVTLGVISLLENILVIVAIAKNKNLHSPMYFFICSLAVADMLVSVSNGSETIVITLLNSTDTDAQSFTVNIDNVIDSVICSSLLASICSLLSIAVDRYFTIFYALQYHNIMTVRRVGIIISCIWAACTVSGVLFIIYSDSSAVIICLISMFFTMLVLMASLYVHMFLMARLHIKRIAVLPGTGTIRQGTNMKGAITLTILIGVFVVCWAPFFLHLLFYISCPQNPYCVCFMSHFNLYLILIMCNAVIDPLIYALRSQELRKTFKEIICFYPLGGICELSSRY
mMC4R-NanoLuc and mMC4R-HaloTag homodimer, sequence (P56450 whole entry): as above
mMC5R, sequence (P41149 whole entry, looked up): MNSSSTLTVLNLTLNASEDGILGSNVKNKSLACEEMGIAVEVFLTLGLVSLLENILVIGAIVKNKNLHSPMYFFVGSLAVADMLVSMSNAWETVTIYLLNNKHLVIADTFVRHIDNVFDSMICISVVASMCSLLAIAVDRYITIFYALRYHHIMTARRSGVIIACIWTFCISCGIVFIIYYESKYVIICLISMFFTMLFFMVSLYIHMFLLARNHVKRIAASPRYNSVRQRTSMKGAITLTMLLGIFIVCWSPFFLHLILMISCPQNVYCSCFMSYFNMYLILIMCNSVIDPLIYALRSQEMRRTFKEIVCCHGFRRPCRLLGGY

Question: How did the EC50 (mMC5R) turn out when `CC(=O)N[C@@H](Cc1c[nH]cn1)C(=O)N[C@H](Cc1ccccc1)C(=O)N[C@@H](CCCNC(=N)N)C(=O)N[C@@H](Cc1c[nH]c2ccccc12)C(N)=O` [CJL-1-14, Ac-His-DPhe-Arg-Trp-NH2] was run?
Answer: Its EC50 is 9.8 ± 2.7 nM.

Question: Which results are given for `CC(=O)N[C@@H](Cc1c[nH]cn1)C(=O)N[C@H](Cc1ccc2ccccc2c1)C(=O)N[C@@H](CCCNC(=N)N)C(=O)N[C@@H](Cc1c[nH]c2ccccc12)C(=O)N1CCC[C@H]1C(=O)NCC(=O)N1CCC[C@H]1C(=O)NCC(=O)N1CCC[C@H]1C(=O)NCC(=O)N1CCC[C@H]1C(=O)NCC(=O)N1CCC[C@H]1C(=O)NCC(=O)N1CCC[C@H]1C(=O)NCC(=O)N[C@@H](Cc1c[nH]cn1)C(=O)N[C@H](Cc1ccccc1)C(=O)N[C@@H](CCCNC(=N)N)C(=O)N[C@@H](Cc1c[nH]c2ccccc12)C(N)=O` [CJL-1-63, Ac-His-DNal(2′)-Arg-Trp-(Pro-Gly)6-His-DPhe-Arg-Trp-NH2] (Ac-H[d2Nal]RWPGPGPGPGPGPGH[dF]RW-NH2)?
Answer: EC50 (hMC4R [1]): 1.9 ± 0.2 nM; β-arrestin response compared to maximal efficacy of NDP-MSH (hMC4R [2]): 55%; cAMP agonist potency (in words) (hMC4R [3]; HEK293 cells stably expressing hMC4R): single digit nanomolar agonists

Question: How did the “change in BRET signal (in words)” value [4] turn out when `CC(=O)N[C@@H](Cc1c[nH]cn1)C(=O)N[C@H](Cc1ccc2ccccc2c1)C(=O)N[C@@H](CCCNC(=N)N)C(=O)N[C@@H](Cc1c[nH]c2ccccc12)C(N)=O` [CJL-1-80, Ac-His-DNal(2′)-Arg-Trp-NH2] was run?
Answer: Its value is “no significant changes in BRET signal”.

Question: What about the “β-arrestin response compared to maximal efficacy of NDP-MSH” value (hMC4R [2]) of the same compound?
Answer: The value was 30%.

Question: Which results are given for `N=C(N)NCCC[C@H](NC(=O)[C@@H](Cc1ccccc1)NC(=O)[C@H](Cc1c[nH]cn1)NC(=O)COCC(=O)NCCCOCCOCCOCCCN)C(=O)N[C@@H](Cc1c[nH]c2ccccc12)C(N)=O` [CJL-1-116]?
Answer: EC50 (hMC4R [1]): 2 ± 0.3 nM; fold increase in β-arrestin recruitment compared to CJL-1-14 (hMC4R [2]): < 3 fold; EC50 (hMC4R [5]): 140 ± 70 nM

Question: With `CC(=O)N[C@@H](Cc1c[nH]cn1)C(=O)N[C@H](Cc1ccc2ccccc2c1)C(=O)N[C@@H](CCCNC(=N)N)C(=O)N[C@@H](Cc1c[nH]c2ccccc12)C(=O)NCCCOCCOCCOCCCNC(=O)COCC(=O)N[C@@H](Cc1c[nH]cn1)C(=O)N[C@H](Cc1ccc2ccccc2c1)C(=O)N[C@@H](CCCNC(=N)N)C(=O)N[C@@H](Cc1c[nH]c2ccccc12)C(N)=O` [CJL-1-140] as the compound, how does the “change in BRET signal (in words)” value [4] read?
Answer: The value was “no significant changes in BRET signal”.

Question: And the “β-arrestin recruitment efficacy (in words)” value (hMC4R [2]; relative to NDP-MSH control, up to 10 μM)?
Answer: Its value is “equal or lower β-arrestin recruitment”.

Question: And the “cAMP accumulation of that seen with NDP-MSH” value (hMC4R [3]; at 10 μM)?
Answer: The value was 70%.

Question: `CC(=O)N[C@@H](Cc1c[nH]cn1)C(=O)N[C@H](Cc1ccccc1)C(=O)N[C@@H](CCCNC(=N)N)C(=O)N[C@@H](Cc1c[nH]c2ccccc12)C(=O)NCCCOCCOCCOCCCNC(=O)COCC(N)=O` [CJL-5-35-4, reference compound] was tested. Which “fold increase in β-arrestin recruitment compared to CJL-1-14” value (hMC4R [2]) did it give?
Answer: The value was 5 fold.

Question: What about the “fold increase in cAMP potency compared to CJL-1-14” value (hMC4R [3]; vs monovalent tetrapeptide CJL-1-14) of the same compound?
Answer: The value was 3 fold.
